Drawing on patent US20030207843A1, “Treatment of drug-resistant human immunodeficiency virus infection” (priority 1999, published 2003), this text covers EC50 and Fold-resistance for five molecules.

Common to all, as to type: cell-based
The test system of assay [1] is HIV-1LAI (wild type, control). Put plainly: p24 reduction assay in MT-2 cells, wild type virus. How it is done:
(§1) Cells. MT-2 cells (AIDS Research and Reference Reagent Program, National Institute of Allergy and Infectious Diseases, National Institutes of Health) were maintained in RPMI 1640 supplemented with 10% fetal bovine serum (FBS; JRH Biosciences, Lenexa, Kans.), 10 mM HEPES buffer, 50 IU/ml penicillin and 50 μg/ml streptomycin.
Viruses. Stock virus was prepared by electroporating (BIO-RAD Gene Pulser®, Hercules, Calif.) MT-2 cells (1.3×10^7 cells) with 5-10 μg of plasmid DNA encoding a proviral clone of HIV-1LAI (see Nguyen, et. al., Antimicrob. Agents Chemother. 38:2409-2414, and Peden, et. al., Virology 185: 661-672.). At peak cytopathic effect (generally 5-7 days post-transfection), culture supernatants were harvested and stored at −80° C. Viral infectivity titers were determined in threefold endpoint dilution assays conducted in MT-2 cells (six wells per dilution). The 50% tissue culture infective dose (TCID50) was calculated using the Reed and Muench equation (see Reed, et. al., Am. J. Hyg. 27:493-496).
Antiviral Susceptibility Assays. The antiviral activity of each compound […], followed by incubation in the presence of three-fold serial drug dilutions (3 wells per dilution) (see Mellors, et. al., Antimicrob. Agents Chemother. 39:1087-1092). Five or seven days after infection, culture supernatants were harvested, lysed with 0.5% triton-X 100 and assayed for p24 antigen concentration using a commercial ELISA assay (DuPont, NEN Products, Wilmington, Del.). The antiviral activity of the compounds is expressed as the IC50, which is the concentration required to inhibit 50% of p24 antigen production. The fold-resistance of a test virus is calculated by dividing the IC50 of the test virus by the IC50 of the HIV-1LAI control virus.
Cultures of MT-2 cells infected with either wild type (xxLAI) or with the drug-resistant strains of HIV-1 listed above were treated with lipid analogs of PFA (B-PFA, MB-PFA, or EB-PFA). The μM concentration required to produce 50% inhibition of replication of the drug-resistant strain of HIV (EC50) was determined as shown in Table 1. Drug effects were measured by assaying p24 (a viral protein) in the culture medium.

For a further assay, the system named is HIV-1LAI T215Y. Put plainly: p24 reduction assay in MT-2 cells, T215Y. Conditions: Table 1, MOI 0.01. How it is done: as §1
(§2) Antiviral Susceptibility Assays. The antiviral activity of each compound was determined by inoculating MT-2 cells with HIV-1LAI at a multiplicity of infection (MOI) of 0.01 TCID50/cell, followed by incubation in the presence of three-fold serial drug dilutions (3 wells per dilution) (see Mellors, et. al., Antimicrob. Agents Chemother. 39:1087-1092). Five or seven days after infection, culture supernatants were harvested, lysed with 0.5% triton-X 100 and assayed for p24 antigen concentration using a commercial ELISA assay (DuPont, NEN Products, Wilmington, Del.). The antiviral activity of the compounds is expressed as the IC50, which is the concentration required to inhibit 50% of p24 antigen production. The fold-resistance of a test virus is calculated by dividing the IC50 of the test virus by the IC50 of the HIV-1LAI control virus.
(§3) Generation of Mutant Recombinant HIV-1. HIV-1 containing the desired mutations were generated by oligonucleotide directed mutagenesis (Altered Sites II, Promega) as previously described (Mellors, et. al., Molecular Pharm. 41:446-451). After mutagenesis, mutant RT was subcloned into the pxxHIV-1LAI cloning vector using the silent XmaI and XbaI restriction sites located at the 5′ and 3′ ends of RT. Clones were DNA sequenced to verify the presence of the desired mutation(s) and electroporated into MT-2 cells as described above to generate infectious mutant recombinant HIV-1.
Mutant RT was generated via oligonucleotide-directed mutagenesis and ligated into the pXXHIV-1LAI cloning vector. Cloning was facilitated by the presence of two silent restriction sites at the 5′ and 3′ ends (Xma1 and Xba1, respectively) of pXXHIV-1LAI RT. […]

In another assay the test system is HIV-1LAI 4XAZT/W88S. Put plainly: p24 reduction assay in MT-2 cells, 4XAZT/W88S. The following applies: Table 7; for EC50: 4XAZT/W88S; for Fold-resistance: 4XAZT/W88S relative to wild type virus. How it is done:
as §1, §2, §3
(§4) Mutant RT was generated via oligonucleotide-directed mutagenesis and ligated into the pXXHIV-1LAI cloning vector. Cloning was facilitated by the presence of two silent restriction sites at the 5′ and 3′ ends (Xma1 and Xba1, respectively) of pXXHIV-1LAI RT. Infectious mutant recombinant HIV-1 was generated by electroporating MT-2 cells with mutated pXXHIV-1LAI clones. The presence of the desired mutations was verified by DNA sequencing.
Invention compounds were also evaluated against a panel of HIV-1LAI derived recombinants resistant to PFA and the PFA invention compounds, as shown in Table 7.

The subject of a further assay is HIV-1LAI K65R. Put plainly: p24 reduction assay in MT-2 cells, K65R. The following applies: for EC50: K65R; for Fold-resistance: K65R relative to wild type virus. How it is done: as §1, §2, §3, §4
The multi-drug resistant HIV-1 strains, 11163p1 and 11588p1, are human clinical isolates having the RT mutations indicated. HIV-1 strains treated with the lipid analogs of the present invention include wild type, e.g., xxLAI, and the like, single mutation, e.g., xxLAI MI 84V (resistant to 3TC), xxLAI L74V (resistant to ddI and ddC), xxLAI K65R (resistant to ddI, ddC, DAPD, DXG, tenofovir, and adefovir), xxLAI T215Y (resistant to AZT), and the like, double mutations, e.g., xxLAI M41 L/T215Y (resistant to AZT), xxLAI MI 84V/T215Y (resistant to 3TC and AZT), and the like, and multiple mutations, e.g., xxLAI 4XAZT ((D67N, K70R, T215Y, K219Q) resistant to AZT)), xxLAI 4XAZT/M184V ((D67N, K70R, M 184V, T215Y, K219Q) resistant to AZT and 3TC), xxLAI M5456-12 (AZT+NNRTI resistant: D67N, K70R, K103N, T215Y), xxLAI G2-3g (AZT/3TC co-resistant: M41L, D67N, M184V, H208Y, L210W, R211K, L214F, T215Y, 1293V, E297A), 11163 (multinucleoside resistant virsus: M41L, A62V, V751, F77L, K103N, F116Y, Q151M, Y181C, M184V), 11588 (multinucleoside resistant virsus: A62V, K65R, K70R, V751, F77L, F116Y, Q151M, M184V, K219Q), and the like.

The mark [2] stands for this setting: Table 1, HIV-1LAI(control), MOI 0.01, p24, MT-2 cells, read-out: EC50.
Where [3] appears, read: Table 2, HIV-1LAI(control), MOI 0.05, read-out: EC50.
Setting [4] is: Table 3, Wild type, mean ± SD, at least three experiments, read-out: EC50.
The mark [5] stands for this setting: Table 4, HIV-1LAI wild type, mean ± SD, two or three experiments, read-out: EC50.
Where [6] appears, read: Table 5, Wild type, mean ± SD, read-out: EC50.
The mark [7] stands for this setting: Table 6, baseline virus HIV-1LAI passage 0, read-out: EC50.

The structures appear in SMILES notation. Read-outs that look alike come from different tables or passages of the source.

`Cc1cn([C@H]2C[C@H](N=[N+]=[N-])[C@@H](CO)O2)c(=O)[nH]c1=O` [AZT, 3′-Azido-3′-deoxythymidine]: the EC50 in assay [1] (Human immunodeficiency virus 1, MT2, Table 8, Wild type, mean ± SD, read-out: AZT EC50) was found to be 21 ± 8 nM.

As to `CCCCCCCCCCCCCCCCCCOC[C@H](COP(=O)(O)C(=O)O)OCC` [EB-PFA, 1-O-octadecyl-2-O-ethyl-sn-glycero-3-PFA], the EC50 amounted to 220 nM in assay [1] (setting [2]); 760 nM in assay [1] (setting [3]); 650 ± 360 nM in assay [1] (setting [4]); 700 ± 360 nM in assay [1] (setting [5]); 650 ± 360 nM in assay [1] (setting [6]); 90 nM in assay [1] (setting [7]). Also, the EC50 in the assay on HIV-1LAI T215Y turned out to be 140 nM; in the assay on HIV-1LAI 4XAZT/W88S, 1510 nM; with HIV-1LAI K65R (Table 1, MOI 0.01) it was 3220 nM; with HIV-1LAI K65R (Table 3, mean ± SD), 2910 ± 1300 nM. The Fold-resistance is listed as 0.21 (1.9) with HIV-1LAI 4XAZT/W88S and “(4.5)” in the assay on HIV-1LAI K65R (Table 3).

`CCCCCCCCCCCCCCCCCCOC[C@@H](O)COP(=O)(O)C(=O)O` [B-PFA, 1-O-octadecyl-sn-glycero-3-PFA]: the EC50 in assay [1] (setting [2]) was found to be 1900 nM; in assay [1] (setting [3]), 3010 nM; in assay [1] (setting [4]), 1790 ± 810 nM; in assay [1] (setting [5]), 1800 ± 810 nM; in assay [1] (setting [6]) it was 1790 ± 810 nM; in the assay on HIV-1LAI T215Y, 840 nM. Also, the EC50 was found to be 4090 nM in the assay with HIV-1LAI 4XAZT/W88S; 17700 nM in the assay on HIV-1LAI K65R (Table 1, MOI 0.01); 14700 ± 6610 nM with HIV-1LAI K65R (Table 3, mean ± SD). Further, the Fold-resistance with HIV-1LAI 4XAZT/W88S is listed as 1.84 (1.6); with HIV-1LAI K65R (Table 3) it was “(8.2)”.

In the case of `O=C(O)P(=O)(O)O` [PFA, phosphonoformate, reference compound], the EC50 in assay [1] (Human immunodeficiency virus 1, MT2, Table 1, HIV-1LAI(control), MOI 0.01, p24, MT-2 cells, read-out: EC50) came to 18300 nM; in assay [1] (Human immunodeficiency virus 1, MT2, Table 2, HIV-1LAI(control), MOI 0.05, read-out: EC50), 20100 nM; in assay [1] (Human immunodeficiency virus 1, MT2, Table 3, Wild type, mean ± SD, at least three experiments, read-out: EC50) it was 17700 ± 10100 nM; in assay [1] (Human immunodeficiency virus 1, MT2, Table 4, HIV-1LAI wild type, mean ± SD, two or three experiments, read-out: EC50), 17700 ± 10100 nM; in assay [1] (Human immunodeficiency virus 1, MT2, Table 5, Wild type, mean ± SD, read-out: EC50) it was 17700 ± 10100 nM; in assay [1] (Human immunodeficiency virus 1, MT2, Table 6, baseline virus HIV-1LAI passage 0, read-out: EC50), 5270 nM. Moreover, the EC50 came out at 13100 nM in assay [1] (Human immunodeficiency virus 1, MT2, Table 7, Wild type, mean (SD in next grid row), read-out: EC50); 18400 nM in the assay on HIV-1LAI 4XAZT/W88S (Human immunodeficiency virus 1, MT2); 57300 nM with HIV-1LAI K65R (Human immunodeficiency virus 1, MT2, Table 1, MOI 0.01); 67000 ± 22800 nM in the assay on HIV-1LAI K65R (Human immunodeficiency virus 1, MT2, Table 3, mean ± SD). For the same molecule, the Fold-resistance is on record as 10.40 (1.0) in the assay with HIV-1LAI 4XAZT/W88S and “(3.8)” in the assay on HIV-1LAI K65R (Table 3).

On to `CCCCCCCCCCCCCCCCCCOC[C@H](COP(=O)(O)C(=O)O)OC` [MB-PFA, 1-O-octadecyl-2-O-methyl-sn-glycero-3-PFA], for which the EC50 in assay [1] (setting [2]) was 350 nM; in assay [1] (setting [3]), 1040 nM; in assay [1] (setting [4]), 500 ± 480 nM; in assay [1] (setting [5]) it was 500 ± 480 nM; in assay [1] (setting [6]), 500 ± 480 nM; in assay [1] (setting [7]), 70 nM. In addition, the EC50 in the assay on HIV-1LAI T215Y worked out at 270 nM; in the assay with HIV-1LAI 4XAZT/W88S, 1540 nM; in the assay on HIV-1LAI K65R (Table 1, MOI 0.01), 1240 nM; in the assay with HIV-1LAI K65R (Table 3, mean ± SD), 1660 ± 720 nM. The Fold-resistance with HIV-1LAI 4XAZT/W88S was 0.81 (1.8); in the assay on HIV-1LAI K65R (Table 3) it was “(3.3)”.

Broadly, the EC50 is the concentration that produces a half-maximal response.
